# Test results: patent US20230414786A1, “PERFUSION-GUIDED GENE THERAPY FOR IMPROVING CANCER TREATMENT” (priority 2022, published 2023)
# Assays:
# [1] = cited from earlier work
# iNOS = test: ELISA of protein extracts from transfected NGP cells (iNOS expression); assay type: cell-based, H. sapiens; settings: NGP cell protein extracts, n=3
# [2] = test system: iNOS expression in tumor endothelium of NGP tumors; test: iNOS immunohistochemistry in tumor endothelium (lectin-positive area) 72 h after sonopermeation transfection; assay type: in vivo, nude athymic mice; settings: 72 h after transfection
# Description: (§1) Orthotopic NGP Tumor Model and Implantation. NGP cells were MYC-N amplified, and thus function as an appropriate model for poor prognosis NB. They reproduce many features of clinical NB, such as histology, frequency, and location of metastatic lesions when renally implanted, as was done in nude athymic mice (Charles River, Wilmington, Mass.) to generate tumor models for this study. Mice were firstly anesthetized with inhalable isoflurane. After being positioned in a sterile environment, the entire right side of each mouse was cleaned with ethanol and painted with Betadine. A 3-5 mm diagonal incision was made with a scalpel blade toward the ribcage atop the kidney. The underlying fascia was cut with scissors to expose the right kidney. A 27-gauge needle (of length 1.3 cm, BD Biosciences) fitted to a syringe containing 20 μL of cell suspension (1×10^6 NGP cells in Phosphate Buffered Saline, Leibniz Institute DSMZ-GmbH, Braunschweig, Germany) was inserted into the kidney and its contents injected slowly. The kidney was then returned to the abdominal cavity. […] Mice were monitored daily to confirm complete recovery, and tumors were allowed to grow for 4-5 weeks (1-2-g weight) before ultrasound experiments were initiated. […]
# Quantitative Ex Vivo Imaging. […] The images were then analyzed in ImageJ (NIH, USA), selecting the lectin-positive area of the picture taken to create the area to be quantified. […]
# [3] = test system: iNOS expression in adjacent glomeruli; test: iNOS immunohistochemistry in adjacent kidney glomeruli after sonopermeation transfection; assay type: in vivo, nude athymic mice; settings: p>0.05
# Description: Quantitative Ex Vivo Imaging. For iNOS expression colocalization studies, sections were imaged on a Marianas Confocal (Zeiss) using a 40X oil objective, capturing 14 steps of 0.33 μm on the z-axis, with a resolution of 0.33 μm per pixel. At least five images of each tumor of were taken, with four tumors per group. To avoid bias, the endothelial marker Isolectin-B4 was used to determine image capture and focus and iNOS staining was captured at equal exposure times for all tissues. The images were then analyzed in ImageJ (NIH, USA), selecting the lectin-positive area of the picture taken to create the area to be quantified. This area was then used to quantify the mean intensity of the iNOS staining within the tumor endothelium. The mean iNOS intensity within each tumor endothelium z-stack was then averaged to obtain the mean iNOS intensity of each tumor blood vessel analyzed. Averages were then obtained for each tumor. Because tumor cells were injected directly into the kidney and often coopt glomeruli and tubules (PMID: 24066611), NOS expression was quantified in the adjacent kidney in a separate analysis, following the same method as tumor iNOS quantification. Quantification of pimonidazole and Isolectin was performed using the average intensities from the respective stains comparing the iNOS treated and Sham groups using FIJI (NIH). […]
# orthotopic NGP tumor [4] = test: Quantitative contrast-enhanced ultrasound (qCEUS) imaging of tumor perfusion volume and reperfusion rate; assay type: in vivo, nude athymic mice
# Description: as §1, with “kidney.” for “kidney. A 27-gauge needle (of length 1.3 cm, BD Biosciences) fitted to a syringe containing 20 μL of cell suspension (1×10^6 NGP cells in Phosphate Buffered Saline, Leibniz Institute DSMZ-GmbH, Braunschweig, Germany) was inserted into the kidney and its contents injected slowly. The kidney was then returned to the abdominal cavity.”
# 3D Volume and 2D Perfusion Imaging. […] Data were collected and subsequently analyzed using custom LabVIEW software, where tumor boundaries were manually segmented. […] As described in Wei K, et al., Quantification of Myocardial Blood Flow With Ultrasound-Induced Destruction of Microbubbles Administered as a Constant Venous Infusion, Circulation, 1998; 97: 473-83, MB perfusion conforms to the equation y=A (1−e^βt), where A is the relative blood volume (RBV) and β is the rate of reperfusion. […]
# orthotopic NGP tumor [5] = test: Immunohistochemical analysis of tumor vascularity and hypoxia (Isolectin-B4, aSMA, pimonidazole) 72 h after transfection; assay type: in vivo, nude athymic mice; parameters: unit not given here
# Description: Tumoral Hypoxia Measurements. 60 mg/kg pimonidazole-HCl (Hypoxyprobe, Massachusetts) was injected intraperitoneally 30 min before sacrifice, and tissues were harvested and processed as described above.
# Immunohistochemistry. Excised NGP tumors were embedded in Tissue-Tek® optimum cutting temperature (O.C.T.) compound (Electron Microscopy Services), then stored at −20 ° C. until cryosectioned (Leica CM1860). 15 μm thick cryosections were fixed with acetone and permeabilized with Tween 20. […]
# Quantitative Ex Vivo Imaging. […] The images were then analyzed in ImageJ (NIH, USA), selecting the lectin-positive area of the picture taken to create the area to be quantified. This area was then used to quantify the mean intensity of the iNOS staining within the tumor endothelium. The mean iNOS intensity within each tumor endothelium z-stack was then averaged to obtain the mean iNOS intensity of each tumor blood vessel analyzed. […] Because tumor cells were injected directly into the kidney and often coopt glomeruli and tubules (PMID: 24066611), NOS expression was quantified in the adjacent kidney in a separate analysis, following the same method as tumor iNOS quantification. Quantification of pimonidazole and Isolectin was performed using the average intensities from the respective stains comparing the iNOS treated and Sham groups using FIJI (NIH). […]
# orthotopic NGP tumor [6] = test: Animal survival study (days for tumors to increase by 50% above starting volume, up to 14 days); assay type: in vivo, nude athymic mice; settings: plasmid transfection followed by L-DOX with sonopermeation; study endpoint 14 days
# Description: Animal Survival Studies. Survival in vivo experiments were performed as detailed above. Briefly, mature tumors were primed with gene therapy (either mKate or iNOS), transfected by sonopermeation with 1×10^9 cationic polydispersed MBs having median diameter ˜2 μm. 72 h following gene therapy treatment, sonopermeation was performed using net-neutral lipid MBs to deliver liposomal doxorubicin as described above. For this experiment, due to the volume of bubbles needed, size-isolated microbubbles (SIMBs) were obtained from Advanced Microbubbles Inc to perform imaging and sonopermeation. Tumors were measured every other day until they reached the endpoint criteria up to 14 days using calipers, and re-imaged with a bolus of 1×10^7 SIMBs on Day 7 as well as re-dosed with L-DOX in conjunction with sonopermeation. Normalized tumor growth over the two-week observation period was obtained by dividing the volume on any given day by initial tumor volume. Kaplan-Meier curves were generated to plot the number of days it took for tumors to increase by 50% above their starting volume up to 14 days. Survival curves were plotted, and statistical analyses were conducted in Graphpad (Prism 6). Statistical significance between groups represents Mantel-Cox test, with p<0.05 interpreted as significant.
Molecule,half-life in vivo ([1]; in vivo) [s],half-life in whole blood ([1]; whole blood) [s],iNOS protein by ELISA (iNOS) [units],iNOS in tumor endothelial cells compared with untreated tumors [2],iNOS mean intensity within lectin-positive area ([2]; n=4 per group),iNOS expression in adjacent glomeruli [3],"change in RBV (normalized to tumor volume, vascularity) from baseline (orthotopic NGP tumor [4]; 3 days post-transfection) [%]",rate of MB reperfusion (RR) normalized to TV (orthotopic NGP tumor [4]; day 3 after transfection) [%],distance between aSMA pericytes and endothelium (orthotopic NGP tumor [5]),median survival time (time to 50% tumor growth) (orthotopic NGP tumor [6]) [days]
"[N]=O [NO, Nitric oxide]",< 0.002,0.0018,,,,,,,,
Sham,,,0.04,no change in iNOS,"8,814±2,952",remains unchanged,68±7,77±8,5.8±1.1,9
